Assay results taken from patent publication US20230143604A1, “QW DOSING OF GIP RECEPTOR AGONIST PEPTIDE COMPOUNDS AND USES THEREOF” (TAKEDA PHARMACEUTICAL COMPANY LIMITED, priority 2020, published 2023).
Like-named read-outs stand apart in the source and are kept apart here.

Assays:
[1] = target: T1, human GLP-1R (Homo sapiens, UniProt P43220); assay: Human GLP1R agonist activity, intracellular cAMP accumulation; assay type: cell-based; settings: HEK-293T cells overexpressing human GLP-1R, 1 hr
T1 construct: HEK-293T cells overexpressing full-length human GLP-1R; FLAG (N); host or cells: HEK-293T
How it was run: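 Frozen assay-ready cells washed and resuspended at 4×10^5 cells/mL in Krebs Ringer buffer, then incubated with compound 1 hr at room temperature in the dark. cAMP read by HTRF (anti-cAMP antibody, d2-cAMP tracer). Normalised to 1 nm GLP-1 (100%) and DMSO (0%).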

[2] = test system: C57BL/6J mice; assay: Oral glucose tolerance test (OGTT); assay type: in vivo; settings: 3 nmol/kg s.c., 24 hours before glucose loading
Procedure: An oral glucose tolerance test (OGTT) was carried out using C57BL/6J mice with a 50% dextrose solution dosed at 5 ml/kg. Testing concentrations of 0.1 nmol/kg, 0.3 nmmol/kg, 3 nmol/kg or 10 nmol/kg were selected depending on the peptide. Each peptide or a vehicle (control group) was subcutaneously administered 24 hours (unless shown otherwise) before glucose loading and the blood glucose was measured at 0, 15, 30, and 60 minutes after glucose dosing.
% inhibition=(1−(AUC cpd−AUC naïve/AUC veh−AUC naïve))×100.

[3] = Solubility in phosphate buffer pH 7.4
How it was run: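 3 mg of peptide treated with 100 μL portions of 200 mM phosphate buffer pH 7.4, sonicating/vortexing up to 1 min, with further buffer added until fully dissolved. Solubility then quantified by HPLC.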

[4] = pH 7.4, aqueous buffer, pH 7.4 Phosphate Buffer - Solubility, 200 mM Phosphate buffer pH 7.4
[5] = pH 7.4, solubility in phosphate buffer at pH 7.4, 200 mM phosphate buffer pH 7.4

T1 sequence (P43220 24-463): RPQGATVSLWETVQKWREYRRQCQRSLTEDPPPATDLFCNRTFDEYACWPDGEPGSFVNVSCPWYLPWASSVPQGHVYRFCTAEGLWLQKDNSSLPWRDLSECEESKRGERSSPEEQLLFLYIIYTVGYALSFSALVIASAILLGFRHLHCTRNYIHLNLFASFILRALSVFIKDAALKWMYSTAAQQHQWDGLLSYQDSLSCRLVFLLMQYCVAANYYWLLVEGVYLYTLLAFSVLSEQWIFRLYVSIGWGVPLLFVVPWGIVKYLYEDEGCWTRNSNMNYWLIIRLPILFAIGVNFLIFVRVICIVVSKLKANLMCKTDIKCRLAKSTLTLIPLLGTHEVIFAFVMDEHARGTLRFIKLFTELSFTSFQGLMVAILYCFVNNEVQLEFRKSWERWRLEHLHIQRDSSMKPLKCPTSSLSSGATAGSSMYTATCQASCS

SMILES: CC[C@H](C)[C@H](NC(=O)[C@H](CO)NC(=O)[C@H](Cc1ccc(O)cc1)NC(=O)[C@H](CC(=O)O)NC(=O)[C@H](CO)NC(=O)[C@@H](NC(=O)[C@H](Cc1ccccc1)NC(=O)[C@@H](NC(=O)CNC(=O)[C@H](CCC(=O)O)NC(=O)C(C)(C)NC(=O)[C@H](Cc1ccc(O)cc1)NC)[C@@H](C)O)[C@@H](C)CC)C(=O)N[C@@H](C)C(=O)N[C@@H](CC(C)C)C(=O)N[C@@H](CC(=O)O)C(=O)N[C@@H](CCCNC(=N)N)C(=O)N[C@@H](CCCCNC(=O)CNC(=O)CNC(=O)CNC(=O)CNC(=O)CNC(=O)CCCCCCCCCCCCCCCCC(=O)O)C(=O)N[C@@H](C)C(=O)N[C@@H](CCC(N)=O)C(=O)NC(C)(C)C(=O)N[C@@H](CC(=O)O)C(=O)N[C@@H](Cc1ccccc1)C(=O)N[C@H](C(=O)N[C@@H](CC(N)=O)C(=O)N[C@@H](Cc1c[nH]c2ccccc12)C(=O)N[C@@H](CC(C)C)C(=O)N[C@@H](CC(C)C)C(=O)N[C@@H](C)C(=O)N[C@@H](CCC(N)=O)C(=O)N[C@@H](CO)C(=O)N1CCC[C@H]1C(=O)N[C@@H](CO)C(=O)N[C@@H](CO)C(=O)NCC(=O)N[C@@H](C)C(=O)N1CCC[C@H]1C(=O)N1CCC[C@H]1C(=O)N1CCC[C@H]1C(=O)N[C@@H](CO)C(=O)O)C(C)C [Compound 52]
- EC50 ([1]; Human GLP1R cAMP EC50, HEK293T (nM)): 17 nM
- Oral Glucose Tolerance Test Percent decrease in blood glucose AUC (%) over 60 mins [2]: 65% (3 nmol/kg)
- solubility [3, 4]: ≥ 30 mg/mL
- solubility [3, 5]: ≥ 15 mg/mL

SMILES: CC[C@H](C)[C@H](NC(=O)[C@H](CO)NC(=O)[C@H](Cc1ccc(O)cc1)NC(=O)[C@H](CC(=O)O)NC(=O)[C@H](CO)NC(=O)[C@@H](NC(=O)[C@H](Cc1ccccc1)NC(=O)[C@@H](NC(=O)CNC(=O)[C@H](CCC(=O)O)NC(=O)C(C)(C)NC(=O)[C@@H](N)Cc1ccc(O)cc1)[C@@H](C)O)[C@@H](C)CC)C(=O)N[C@@H](C)C(=O)N[C@@H](CCCCNC(=O)CNC(=O)CNC(=O)CNC(=O)CNC(=O)CNC(=O)CCCCCCCCCCCCCCCCC(=O)O)C(=O)N[C@@H](CC(=O)O)C(=O)N[C@@H](CCCNC(=N)N)C(=O)NC(C)(C)C(=O)N[C@@H](C)C(=O)N[C@@H](CCC(N)=O)C(=O)NC(C)(C)C(=O)N[C@@H](CC(=O)O)C(=O)N[C@@H](Cc1ccccc1)C(=O)N[C@H](C(=O)N[C@@H](CCC(=O)O)C(=O)N[C@@H](Cc1c[nH]c2ccccc12)C(=O)N[C@@H](CC(C)C)C(=O)N[C@@H](CC(C)C)C(=O)N[C@@H](C)C(=O)N[C@@H](CCC(N)=O)C(=O)N[C@@H](CCCNC(=N)N)C(=O)NCC(=O)O)C(C)C [Compound 144]
- Oral Glucose Tolerance Test Percent decrease in blood glucose AUC (%) over 60 mins [2]: 35% (3 nmol/kg)
- solubility ([3]; pH 7.4): ≥ 15 mg/mL
- solubility ([3]; pH 7.4, aqueous buffer): ≥ 30 mg/mL

SMILES: CC[C@H](C)[C@H](NC(=O)[C@H](CO)NC(=O)[C@H](Cc1ccc(O)cc1)NC(=O)[C@H](CC(=O)O)NC(=O)[C@H](CO)NC(=O)[C@@H](NC(=O)[C@H](Cc1ccccc1)NC(=O)[C@@H](NC(=O)CNC(=O)[C@H](CCC(=O)O)NC(=O)C(C)(C)NC(=O)[C@H](Cc1ccc(O)cc1)NC)[C@@H](C)O)[C@@H](C)CC)C(=O)N[C@@H](C)C(=O)N[C@@H](CCCCNC(=O)CNC(=O)CNC(=O)CNC(=O)CNC(=O)CNC(=O)CCCCCCCCCCCCCCCCC(=O)O)C(=O)N[C@@H](CC(=O)O)C(=O)N[C@@H](CCCNC(=N)N)C(=O)NC(C)(C)C(=O)N[C@@H](C)C(=O)N[C@@H](CCC(N)=O)C(=O)NC(C)(C)C(=O)N[C@@H](CC(=O)O)C(=O)N[C@@H](Cc1ccccc1)C(=O)N[C@H](C(=O)N[C@@H](CC(N)=O)C(=O)N[C@@H](Cc1c[nH]c2ccccc12)C(=O)N[C@@H](CC(C)C)C(=O)N[C@@H](CC(C)C)C(=O)N[C@@H](C)C(=O)N[C@@H](CCC(N)=O)C(=O)N[C@@H](CO)C(=O)N1CCC[C@H]1C(=O)N[C@@H](CO)C(=O)N[C@@H](CO)C(=O)NCC(=O)O)C(C)C [Compound 71]
- EC50 ([1]; read-out: Human GLP1R cAMP EC50, HEK293T): 34.7 nM
- Oral Glucose Tolerance Test Percent decrease in blood glucose AUC (%) over 60 mins [2]: 68% (3 nmol/kg)

SMILES: CC[C@H](C)[C@H](NC(=O)[C@H](Cc1ccccc1)NC(=O)[C@@H](NC(=O)CNC(=O)[C@H](CCC(=O)O)NC(=O)C(C)(C)NC(=O)[C@H](Cc1ccc(O)cc1)NC)[C@@H](C)O)C(=O)N[C@@H](CO)C(=O)N[C@@H](CC(=O)O)C(=O)N[C@@H](Cc1ccc(O)cc1)C(=O)N[C@@H](CO)C(=O)N[C@H](C(=O)NC(C)(C)C(=O)N[C@@H](CCCCNC(=O)CNC(=O)CNC(=O)CNC(=O)CNC(=O)CNC(=O)CCCCCCCCCCCCCCCCC(=O)O)C(=O)N[C@@H](CC(=O)O)C(=O)N[C@@H](CCCNC(=N)N)C(=O)NC(C)(C)C(=O)N[C@@H](C)C(=O)N[C@@H](CCC(N)=O)C(=O)NC(C)(C)C(=O)N[C@@H](CC(=O)O)C(=O)N[C@@H](Cc1ccccc1)C(=O)N[C@H](C(=O)N[C@@H](CC(N)=O)C(=O)N[C@@H](Cc1c[nH]c2ccccc12)C(=O)N[C@@H](CC(C)C)C(=O)N[C@@H](CC(C)C)C(=O)N[C@@H](C)C(=O)N[C@@H](CCC(N)=O)C(=O)N[C@@H](CCCNC(=N)N)C(=O)N1CCC[C@H]1C(=O)N[C@@H](CO)C(=O)N[C@@H](CO)C(=O)NCC(=O)N[C@@H](C)C(=O)N1CCC[C@H]1C(=O)N1CCC[C@H]1C(=O)N1CCC[C@H]1C(=O)N[C@@H](CO)C(=O)O)C(C)C)[C@@H](C)CC [Compound 54]
- Oral Glucose Tolerance Test Percent decrease in blood glucose AUC (%) over 60 mins [2]: 43% (3 nmol/kg)
- solubility [3, 4]: ≥ 30 mg/mL
- solubility [3, 5]: ≥ 15 mg/mL

SMILES: CC[C@H](C)[C@H](NC(=O)[C@H](CO)NC(=O)[C@H](Cc1ccc(O)cc1)NC(=O)[C@H](CC(=O)O)NC(=O)[C@H](CO)NC(=O)[C@@H](NC(=O)[C@H](Cc1ccccc1)NC(=O)[C@@H](NC(=O)CNC(=O)[C@H](CCC(=O)O)NC(=O)C(C)(C)NC(=O)[C@H](Cc1ccc(O)cc1)NC)[C@@H](C)O)[C@@H](C)CC)C(=O)N[C@@H](C)C(=O)N[C@@H](CC(C)C)C(=O)N[C@@H](CC(=O)O)C(=O)N[C@@H](CCCNC(=N)N)C(=O)N[C@@H](CCCCNC(=O)CNC(=O)CNC(=O)CNC(=O)CNC(=O)CNC(=O)CCCCCCCCCCCCCCCCC(=O)O)C(=O)N[C@@H](C)C(=O)N[C@@H](CCC(N)=O)C(=O)NC(C)(C)C(=O)N[C@@H](CC(=O)O)C(=O)N[C@@H](Cc1ccccc1)C(=O)N[C@H](C(=O)N[C@@H](CC(N)=O)C(=O)N[C@@H](Cc1c[nH]c2ccccc12)C(=O)N[C@@H](CC(C)C)C(=O)N[C@@H](CC(C)C)C(=O)N[C@@H](C)C(=O)N[C@@H](CCC(N)=O)C(=O)N[C@@H](CCCNC(=N)N)C(=O)N1CCC[C@H]1C(=O)N[C@@H](CO)C(=O)N[C@@H](CO)C(=O)NCC(=O)N[C@@H](C)C(=O)N1CCC[C@H]1C(=O)N1CCC[C@H]1C(=O)N1CCC[C@H]1C(=O)N[C@@H](CO)C(=O)O)C(C)C [Compound 51]
- Oral Glucose Tolerance Test Percent decrease in blood glucose AUC (%) over 60 mins [2]: 50% (3 nmol/kg)
- solubility [3, 4]: ≥ 30 mg/mL
- solubility [3, 5]: ≥ 15 mg/mL

SMILES: CC[C@H](C)[C@H](NC(=O)[C@H](Cc1ccccc1)NC(=O)[C@@H](NC(=O)CNC(=O)[C@H](CCC(=O)O)NC(=O)C(C)(C)NC(=O)[C@H](Cc1ccc(O)cc1)NC)[C@@H](C)O)C(=O)N[C@@H](CO)C(=O)N[C@@H](CC(=O)O)C(=O)N[C@@H](Cc1ccc(O)cc1)C(=O)N[C@@H](CO)C(=O)N[C@H](C(=O)NC(C)(C)C(=O)N[C@@H](CCCCNC(=O)CNC(=O)CNC(=O)CNC(=O)CNC(=O)CNC(=O)CCCCCCCCCCCCCCCCC(=O)O)C(=O)N[C@@H](CC(=O)O)C(=O)N[C@@H](CCCNC(=N)N)C(=O)NC(C)(C)C(=O)N[C@@H](C)C(=O)N[C@@H](CCC(N)=O)C(=O)NC(C)(C)C(=O)N[C@@H](CC(N)=O)C(=O)N[C@@H](Cc1ccccc1)C(=O)N[C@H](C(=O)N[C@@H](CC(N)=O)C(=O)N[C@@H](Cc1c[nH]c2ccccc12)C(=O)N[C@@H](CC(C)C)C(=O)N[C@@H](CC(C)C)C(=O)N[C@@H](C)C(=O)N[C@@H](CCC(N)=O)C(=O)N[C@@H](CO)C(=O)N1CCC[C@H]1C(=O)N[C@@H](CO)C(=O)N[C@@H](CO)C(=O)NCC(=O)N[C@@H](C)C(=O)N1CCC[C@H]1C(=O)N1CCC[C@H]1C(=O)N1CCC[C@H]1C(=O)N[C@@H](CO)C(=O)O)C(C)C)[C@@H](C)CC [Compound 96]
- Oral Glucose Tolerance Test Percent decrease in blood glucose AUC (%) over 60 mins [2]: 80% (3 nmol/kg)
- solubility [3, 4]: ≥ 60 mg/mL
- solubility [3, 5]: ≥ 15 mg/mL

SMILES: CC[C@H](C)[C@H](NC(=O)[C@H](CO)NC(=O)[C@H](Cc1ccc(O)cc1)NC(=O)[C@H](CC(=O)O)NC(=O)[C@H](CO)NC(=O)[C@@H](NC(=O)[C@H](Cc1ccccc1)NC(=O)[C@@H](NC(=O)CNC(=O)[C@H](CCC(=O)O)NC(=O)C(C)(C)NC(=O)[C@@H](N)Cc1ccc(O)cc1)[C@@H](C)O)[C@@H](C)CC)C(=O)N[C@@H](C)C(=O)N[C@@H](CCCCNC(=O)CNC(=O)CNC(=O)CNC(=O)CNC(=O)CNC(=O)CCCCCCCCCCCCCCCCC(=O)O)C(=O)N[C@@H](CC(=O)O)C(=O)N[C@@H](CCCNC(=N)N)C(=O)NC(C)(C)C(=O)N[C@@H](C)C(=O)N[C@@H](CCC(N)=O)C(=O)NC(C)(C)C(=O)N[C@@H](CC(N)=O)C(=O)N[C@@H](Cc1ccccc1)C(=O)N[C@H](C(=O)N[C@@H](CC(N)=O)C(=O)N[C@@H](Cc1c[nH]c2ccccc12)C(=O)N[C@@H](CC(C)C)C(=O)N[C@@H](CC(C)C)C(=O)N[C@@H](C)C(=O)N[C@@H](CCC(N)=O)C(=O)N[C@@H](CO)C(=O)N1CCC[C@H]1C(=O)N[C@@H](CO)C(=O)N[C@@H](CO)C(=O)NCC(=O)N[C@@H](C)C(=O)N1CCC[C@H]1C(=O)N1CCC[C@H]1C(=O)N1CCC[C@H]1C(=O)N[C@@H](CO)C(=O)O)C(C)C [Compound 138]
- Oral Glucose Tolerance Test Percent decrease in blood glucose AUC (%) over 60 mins [2]: 80% (3 nmol/kg)
- solubility [3, 4]: ≥ 30 mg/mL
- solubility [3, 5]: ≥ 15 mg/mL
